Assay results from ChEMBL document CHEMBL5674888, “PRMT5 Promotes Human Lung Cancer Cell Apoptosis via Akt/Gsk3β Signaling Induced by Resveratrol” (Cell Transplant, 2019).
Calls of active or inactive are those of the source.

Columns and labels:
Assay type in all cases: functional, cell-based
A549 [1] = experiment: Antiproliferative activity against resveratrol-induced human lung A549 cells at 100 nM measured after 5 days by CCK-8 assay; conditions: time 5.0 day
ASTC-a-1 [2] = experiment: Antiproliferative activity against resveratrol-induced human lung ASTC-a-1 cells at 100 nM measured after 5 days by CCK-8 assay; conditions: time 5.0 day
A549 [3] = experiment: Induction of apoptosis in resveratrol-induced human lung A549 cells at 100 nM assessed as increase in cleaved caspase-3 expression measured by immunoblotting method
ASTC-a-1 [4] = experiment: Induction of apoptosis in resveratrol-induced human lung ASTC-a-1 cells at 100 nM assessed as increase in cleaved caspase-3 expression measured by immunoblotting method
A549 [5] = experiment: Induction of apoptosis in resveratrol-induced human lung A549 cells assessed as decrease in pAkt level at Thr308 measured by immunoblotting method
A549 [6] = experiment: Induction of apoptosis in resveratrol-induced human lung A549 cells assessed as decrease in pAkt level at Ser473 measured by immunoblotting method
A549 [7] = experiment: Induction of apoptosis in resveratrol-induced human lung A549 cells assessed as decrease in pGSK3beta level at Ser9 measured by immunoblotting method
A549 [8] = experiment: Induction of apoptosis in resveratrol-induced human lung A549 cells assessed as decrease in Cyclin D1 level measured by immunoblotting method
A549 [9] = experiment: Induction of apoptosis in resveratrol-induced human lung A549 cells assessed as decrease in Cyclin E1 level measured by immunoblotting method

Measured: Activity

O=C(NC[C@H](O)CN1CCc2ccccc2C1)c1ccnc(NC2CCC2)c1
active: all assays above
